According to patent US20190127354A1, “2,4,6,7-TETRASUBSTITUTED QUINOLINE COMPOUNDS AS INHIBITORS OF DNA […]” (FUNDACIÓN PARA LA INVESTIGACIÓN MÉDICA APLICADA, priority 2015, published 2019):

Assays:
CEMO-1 = assay: Cell proliferation assay (CellTiter 96 Aqueous One Solution); assay type: cell-based; details: acute lymphocytic leukemia (ALL) cells, 48 hours of treatment
Method: (§1) Cell proliferation was analyzed after 48 hours of in vitro treatment using the CellTiter 96 Aqueous One Solution Cell Proliferation Assay (Promega, Madison, W). This is a colorimetric method for determining the number of viable cells in proliferation.
(§2) For the assay, suspension cells were cultured by triplicate at a density of 1×10^6 cells/ml in 96-well plates (100.000 cells/well, 100 μl/well), except for HepG2, Hep3B and PLC/PRF/5 cell lines which were cultured at a density of 3000 cells/well, 100 μl/well).
(§3) Adherent cells were obtained from 80-90% confluent flasks and 100 μl of cells were seeded at a density of 5000 cells/well in 96-well plates by triplicate. Before addition of the compounds, adherent cells were allowed to attach to the bottom of the wells for 12 hours. In all cases, only the 60 inner wells were used to avoid any border effects.
(§4) After 48 hours of treatment, plates with suspension cells were centrifuged at 800g for 10 minutes and medium was removed. The plates with adherent cells were flicked to remove medium. Then, cells were incubated with 100 μl/well of medium and 20 μl/well of CellTiter 96 Aqueous One Solution reagent. After 1-3 hours of incubation at 37° C., absorbance was measured at 490 nm in a 96-well plate reader. The background absorbance was measured in wells with only cell line medium and solution reagent. Data was calculated as a percentage of total absorbance of treated cell/absorbance of non treated cells.

Hep3B = assay: as above; assay type: cell-based; details: Homo sapiens, hepatocellular carcinoma cells, 48 hours of treatment
Method: as §1, §2, §3, §4

HepG2 = assay: as above; assay type: cell-based; details: Homo sapiens, hepatocellular carcinoma cells, 48 hours of treatment
Method: as §1, §2, §3, §4

human G9a enzyme = target: T1, human G9a enzyme (Homo sapiens, UniProt Q96KQ7); assay: G9a enzyme activity assay (TR-FRET); assay type: biochemical; details: 1 hour at room temperature
T1 construct: purchased BPS Biosciences 51001; host or cells: baculovirus infected Sf9 cells
T1 sequence (Q96KQ7 1-1210): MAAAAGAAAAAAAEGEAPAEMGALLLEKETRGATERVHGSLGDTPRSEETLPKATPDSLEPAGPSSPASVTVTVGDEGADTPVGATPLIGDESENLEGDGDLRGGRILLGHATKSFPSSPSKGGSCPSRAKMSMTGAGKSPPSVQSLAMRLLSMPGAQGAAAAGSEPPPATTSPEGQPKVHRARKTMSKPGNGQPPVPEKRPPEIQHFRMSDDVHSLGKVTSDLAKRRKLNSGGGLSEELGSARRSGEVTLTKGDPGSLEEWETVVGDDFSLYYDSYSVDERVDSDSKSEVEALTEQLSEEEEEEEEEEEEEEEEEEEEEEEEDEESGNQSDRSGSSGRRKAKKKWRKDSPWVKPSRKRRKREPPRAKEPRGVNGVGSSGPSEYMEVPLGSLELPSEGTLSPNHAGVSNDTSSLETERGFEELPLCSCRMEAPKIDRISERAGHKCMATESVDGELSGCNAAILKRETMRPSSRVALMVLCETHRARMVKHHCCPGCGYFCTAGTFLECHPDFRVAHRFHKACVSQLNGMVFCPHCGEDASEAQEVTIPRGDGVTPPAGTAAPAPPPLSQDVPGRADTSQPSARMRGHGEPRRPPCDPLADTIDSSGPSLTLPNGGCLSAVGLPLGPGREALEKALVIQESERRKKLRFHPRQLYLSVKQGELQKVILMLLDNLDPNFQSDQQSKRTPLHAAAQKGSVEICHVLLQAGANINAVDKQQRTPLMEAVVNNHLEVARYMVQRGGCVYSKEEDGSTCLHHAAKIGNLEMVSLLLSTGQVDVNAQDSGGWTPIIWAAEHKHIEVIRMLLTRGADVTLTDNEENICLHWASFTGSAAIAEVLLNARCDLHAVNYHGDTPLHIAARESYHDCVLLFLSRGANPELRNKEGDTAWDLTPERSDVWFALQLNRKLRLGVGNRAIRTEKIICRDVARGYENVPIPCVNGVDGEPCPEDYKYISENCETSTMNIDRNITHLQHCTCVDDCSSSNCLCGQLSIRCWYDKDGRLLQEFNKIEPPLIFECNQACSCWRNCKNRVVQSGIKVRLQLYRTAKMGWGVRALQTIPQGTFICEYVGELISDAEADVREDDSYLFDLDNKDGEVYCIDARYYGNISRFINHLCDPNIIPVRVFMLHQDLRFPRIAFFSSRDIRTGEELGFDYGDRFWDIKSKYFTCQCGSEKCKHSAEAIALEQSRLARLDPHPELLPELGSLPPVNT
Method: G9a Enzyme Activity Assay
The biochemical assay to measure G9a enzyme activity relies on time-resolved fluorescence energy transfer (TR-FRET) between europium cryptate (donor) and XL665 (acceptor). […] The human G9a enzyme expressed in a baculovirus infected Sf9 cell expression system was obtained from BPS Biosciences (Cat. #51001). Enzyme activity assay was carried out in a white 384-well plate in a final volume of 20 μl, as follow: • 4 μl of vehicle or studied compound 2.5× concentrated prepared in assay buffer (50 mM Tris-HCl, 10 mM NaCl, 4 mM DTT, 0.01% Tween-20 pH9). Final percentage of DMSO was 0.5%. • 2 μl of 1 nM G9a enzyme diluted in assay buffer. […] Final concentration 150 nM. • Then, add 5 μl of streptavidin XL665 beads. Final concentration of 16 μM. • Read the plate after 1 hour of incubation at room temperature.
(§5) For each well, fluorescence was measured at 620 nm and 665 nm. A ratio (665 nm/620 nm) was then calculated in order to minimize medium interferences. Positive control was obtained in the presence of the vehicle of the compounds. Negative control was obtained in the absence of G9a enzyme activity. Calculated IC50 values were determined using GraphPrism using 4-parameters inhibition curve.

human DNMT1 = target: T2, human DNMT1 (Homo sapiens, UniProt P26358); assay: DNMT1 enzyme activity assay (TR-FRET, EPIgeneous methyltransferase assay); assay type: biochemical; details: human DNMT1, 15 minutes at 37° C.
T2 construct: purchased Reaction Biology Corp. DMT-21-124
Method: DNMT1 Enzyme Activity Assay
The biochemical assay to measure DNMT1 enzyme activity relies on time-resolved fluorescence energy transfer (TR-FRET) between lumi4-Tb (donor) and d2 (acceptor) using the EPIgeneous methyltransferase assay (CisBio Cat#62SAHPEB). […] TR-FRET signal is inversely proportional to the concentration of SAH, product of DNMT1 enzyme activity, in the sample. The human DNMT1 was obtained from Reaction Biology Corp. (Cat# DMT-21-124).
Enzyme activity assay was carried out in a white 384-well plate in a final volume of 20 μl, as follow: • 4 μl of vehicle or studied compound 2.5× concentrated prepared in assay buffer (50 mM Tris-HCl, 1 mM EDTA, 1 mM DTT, 0.1% Triton X-100, 5% glycerol pH 7.5). Final percentage of DMSO was 0.5%. • 2 μl of 1 nM DNMT1 enzyme diluted in assay buffer.
as §5, with “compounds.” for “compounds. Negative control was obtained in the absence of G9a enzyme activity.”

PLC/PRF/5 = assay: Cell proliferation assay (CellTiter 96 Aqueous One Solution); assay type: cell-based; details: Homo sapiens, hepatocellular carcinoma cells, 48 hours of treatment
Method: as §1, §2, §3, §4

[1] = test system: DNA methyltransferase (DNMT); details: selectivity in a methyltransferase enzyme panel including one DNMT, according to the authors; cited from earlier work

T2 sequence (P26358 whole entry): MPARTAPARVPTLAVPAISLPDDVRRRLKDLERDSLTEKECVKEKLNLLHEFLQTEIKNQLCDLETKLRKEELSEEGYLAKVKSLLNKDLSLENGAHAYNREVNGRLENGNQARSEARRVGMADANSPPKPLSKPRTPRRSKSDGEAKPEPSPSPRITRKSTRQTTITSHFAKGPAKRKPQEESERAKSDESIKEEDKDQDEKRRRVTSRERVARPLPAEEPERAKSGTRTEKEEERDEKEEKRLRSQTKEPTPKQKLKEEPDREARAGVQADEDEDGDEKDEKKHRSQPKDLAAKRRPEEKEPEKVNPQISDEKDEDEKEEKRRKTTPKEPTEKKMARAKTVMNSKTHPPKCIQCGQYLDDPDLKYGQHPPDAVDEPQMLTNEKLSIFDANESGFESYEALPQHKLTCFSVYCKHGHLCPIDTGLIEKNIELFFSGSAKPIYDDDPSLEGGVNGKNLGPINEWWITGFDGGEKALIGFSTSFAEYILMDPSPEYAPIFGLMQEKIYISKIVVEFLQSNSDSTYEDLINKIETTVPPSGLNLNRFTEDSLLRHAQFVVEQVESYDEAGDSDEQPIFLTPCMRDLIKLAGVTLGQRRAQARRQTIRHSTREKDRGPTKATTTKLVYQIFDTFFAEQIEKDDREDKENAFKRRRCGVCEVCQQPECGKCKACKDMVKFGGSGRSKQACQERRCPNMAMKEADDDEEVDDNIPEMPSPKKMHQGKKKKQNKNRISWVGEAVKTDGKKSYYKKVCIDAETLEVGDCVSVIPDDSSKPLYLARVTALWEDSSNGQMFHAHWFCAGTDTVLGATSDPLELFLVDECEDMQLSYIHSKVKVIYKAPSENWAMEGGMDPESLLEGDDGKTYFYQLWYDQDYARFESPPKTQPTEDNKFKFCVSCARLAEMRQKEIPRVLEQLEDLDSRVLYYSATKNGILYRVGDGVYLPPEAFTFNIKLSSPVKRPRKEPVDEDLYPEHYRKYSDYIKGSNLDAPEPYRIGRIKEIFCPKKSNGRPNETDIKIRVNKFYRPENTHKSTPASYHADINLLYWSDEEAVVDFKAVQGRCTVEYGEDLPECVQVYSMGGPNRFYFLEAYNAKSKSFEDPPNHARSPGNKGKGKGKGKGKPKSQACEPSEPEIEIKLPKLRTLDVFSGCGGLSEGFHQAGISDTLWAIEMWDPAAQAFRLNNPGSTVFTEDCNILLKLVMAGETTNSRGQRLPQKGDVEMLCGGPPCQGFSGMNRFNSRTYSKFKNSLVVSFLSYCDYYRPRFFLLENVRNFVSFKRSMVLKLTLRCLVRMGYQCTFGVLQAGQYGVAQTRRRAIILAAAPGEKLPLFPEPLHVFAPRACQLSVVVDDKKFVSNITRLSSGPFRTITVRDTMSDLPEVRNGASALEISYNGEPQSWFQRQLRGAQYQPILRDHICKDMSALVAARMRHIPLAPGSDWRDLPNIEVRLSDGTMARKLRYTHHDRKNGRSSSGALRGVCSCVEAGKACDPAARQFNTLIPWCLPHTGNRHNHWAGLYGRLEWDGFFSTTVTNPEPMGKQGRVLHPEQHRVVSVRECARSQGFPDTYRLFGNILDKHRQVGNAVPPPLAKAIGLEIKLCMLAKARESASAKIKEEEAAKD

Structure (SMILES)	GI50 (CEMO-1)	GI50 (Hep3B)	GI50 (HepG2)	IC50 (human G9a enzyme)	IC50 (human DNMT1)	GI50 (PLC/PRF/5)	activity against the DNA methyltransferase [1]
COc1cc2c(N(C)C3CCN(C)CC3)cc(-c3ccc(C)o3)nc2cc1OCCCN1CCCC1 [Compound 1-02]	≥ 10000 nM	1000 to 10000 nM	1000 to 10000 nM	–	–	–	–
COc1cc2c(N(C)CC3CCN(C)CC3)cc(-c3ccc(C)o3)nc2cc1OCCCN1CCCC1 [Compound 1-03]	1000 to 10000 nM	100 to 1000 nM	100 to 1000 nM	1000 to 10000 nM	100 to 500 nM	–	–
CCc1ccc(-c2cc(N(C)CC3CCN(C)CC3)c3cc(OC)c(OCCCN4CCCC4)cc3n2)o1 [Compound 1-04]	100 to 1000 nM	100 to 1000 nM	100 to 1000 nM	500 to 1000 nM	100 to 500 nM	–	–
COc1cc2c(OC3CCN(C)CC3)cc(-c3ccc(C)o3)nc2cc1OCCCN1CCCC1 [Compound 3-01, 6-methoxy-2-(5-methyl-2-furyl)-4-[(1-methyl-4-piperidyl)oxy]-7-(3-pyrrolidin-1-ylpropoxy)quinoline]	1000 to 10000 nM	1000 to 10000 nM	1000 to 10000 nM	–	–	1000 to 10000 nM	–
COc1cc2nc(N3CCCN(C)CC3)cc(NC3CCN(Cc4ccccc4)CC3)c2cc1OC [Compound 41]	–	–	–	–	–	–	inactive
COc1cc2nc(N3CCN(C)CC3)cc(NC3CCN(Cc4ccccc4)CC3)c2cc1OC [Compound 42]	–	–	–	–	–	–	inactive
